In data set [1] the test system is MRC-5 cells (healthy lung fibroblast). Description: Cytotoxic analysis (IC50) of adherent cell lines, resazurin: MRC-5. The format is cell-based. As to conditions: 24 h incubation, read-out: IC50 ± SD, MRC-5. The protocol: (§1) All adherent cell lines, including healthy lung fibroblast (MRC-5), hepatocellular carcinoma (HepG-2), cervix adenocarcinoma (HeLa), breast adenocarcinoma (MDA-MB-231), prostate carcinoma (DU 145) and suspended chronic myelogenous leukemia (K-562) cells, were cultured in a humidified atmosphere containing 5% CO2 at 37 °C. The cultures were maintained in Dulbecco's Modified Eagle Medium (DMEM) or Roswell Park Memorial Institute (RPMI) 1640 medium (Vitrocell®, Campinas, SP, Brazil) supplemented with 10% fetal bovine serum (FBS), 50 mg/L gentamicin sulfate, and 2 mg/L amphotericin B.
(§2) In these experiments, cells were collected in a solution of trypsin/ethylenediaminetetraacetic acid (EDTA) (Vitrocell®) and centrifuged (252× g for 5 min). The number of cells was counted using a Neubauer chamber (Celeromics, Valencia, Spain) after staining non-viable cells with 0.4% trypan blue solution (Sigma-Aldrich®) via the cell exclusion assay. Then, the cell concentration was adjusted to 7.5 × 10^4 cells/mL in DMEM for tumor cells and MRC-5 cells. Next, a 200 μL suspension was deposited into each well of a 96-well microplate to a cell density of 1.5 × 10^4 cells/well. The cells were incubated at 37 °C in an atmosphere of 5% CO2 for 24 h to allow the cells to attach to the plate. The coordination compounds were solubilized in DMSO to an initial concentration of 10,000 µg/mL. Test solutions of the complexes were prepared to obtain concentrations from 500 to 1.95 μg/mL. The diluted solutions were added to the cells after changing the medium to remove any non-adherent cells, and the cultures were incubated for an additional 24 h. The cytotoxicity of the complexes was determined after incubating the cells in 30 μL of resazurin for approximately 2 h. The measurement was performed using a Synergy H1 microplate reader (BioTek®, Winooski, VT, USA) with excitation and emission filters at wavelengths of 530 and 590 nm, respectively. The assays were performed in three independent experiments.
In general terms: Resazurin is reduced to fluorescent resorufin, in cell work by metabolically active cells.

In data set [2] the test system is MDA-MB-231 cells (breast adenocarcinoma). The data set is described as follows: Cytotoxic analysis (IC50) of adherent cell lines, resazurin: MDA-MB-231. In kind it is cell-based. As to conditions: for IC50: MDA-MB-231 tumor cells, 24 h incubation, resazurin, read-out: IC50 ± SD, MDA-MB-231; for SI (selectivity index), MDA-MB-231: IC50 for MRC-5 cells / IC50 for MDA-MB-231 cells. The procedure: as §1, §2
(§3) The SI of the complexes was calculated as the ratio of the IC50 for healthy MRC-5 cells to the IC50 for tumor cells. […] Substances with SI values >3 are considered promising.

The subject of data set [3] is BALB/c mice. Description: Quantification of serum AST and ALT enzymatic activity levels. The format is in vivo. To be noted: ANOVA and Dunnett's test. The protocol:
To analyze whether there were any biochemical changes in the liver of the animals, we quantified the serum AST and ALT enzymatic activity levels in mice after administration of the complexes via gavage before sacrificing, as described above. A total of 500 µL of blood was collected via the submandibular vein. The blood samples were placed in collection tubes, centrifuged at 1097.6× g for 15 min to separate the serum, and stored at −70 °C. The samples were analyzed on the day of collection.
Enzymatic activity measurements were performed using biochemical diagnostic kits from Labtest S.A. (Labtest S.A., Lagoa Santa, MG, Brazil).
Statistical analysis was performed using GraphPad Prism Version 1.5 software via ANOVA and Dunnett’s test, and p < 0.05 was established as the significance level.

Data set [4] deals with DU 145 cells (prostate carcinoma). Description: Cytotoxic analysis (IC50) of adherent cell lines, resazurin: DU 145. As to conditions: for IC50: DU 145 tumor cells, 24 h incubation, resazurin, read-out: IC50 ± SD, DU 145; for SI (selectivity index), DU 145: IC50 for MRC-5 cells / IC50 for DU 145 cells. In kind it is cell-based. The protocol: as §1, §2, §3
Data set [5] relates to HepG2 cells (hepatocellular carcinoma). Description: Cytotoxic analysis (IC50) of adherent cell lines, resazurin: HepG2. The format is cell-based. To be noted: for IC50: HepG2 tumor cells, 24 h incubation, resazurin, read-out: IC50 ± SD, HepG2; for SI (selectivity index), HepG2: IC50 for MRC-5 cells / IC50 for HepG2 cells. The protocol: as §1, §2, §3
Data set [6] has as its system HeLa cells (cervix adenocarcinoma). The data set is described as follows: Cytotoxic analysis (IC50) of adherent cell lines, resazurin: HeLa. In kind it is cell-based. To be noted: for IC50: HeLa tumor cells, 24 h incubation, resazurin, read-out: IC50 ± SD, HeLa; for SI (selectivity index), HeLa: IC50 for MRC-5 cells / IC50 for HeLa cells. The procedure: as §1, §2, §3

The subject of data set [7] is K-562 cells (chronic myelogenous leukemia). Description: Cytotoxic analysis (IC50) of suspended cells, resazurin: K-562. In kind it is cell-based. To be noted: for IC50: K-562 suspended tumor cells, 24 h incubation, resazurin, read-out: IC50 ± SD, K-562; for SI (selectivity index), K-562: IC50 for MRC-5 cells / IC50 for K-562 cells. The procedure: as §1
In these experiments, cells were centrifuged (252× g for 5 min), and the number of cells was counted using a Neubauer chamber after staining non-viable cells with 0.4% trypan blue solution (Sigma-Aldrich®) via the cell exclusion assay. Then, the cell concentration was adjusted to 2 × 10^5 cells/mL in RPMI 1640 medium. Next, 100 μL of the suspension was deposited into each well of a 96-well microplate to a final cell density of […] [35]. The complexes were dissolved in DMSO to an initial concentration of 10,000 μg/mL. Test solutions of the complexes were prepared to obtain concentrations from 500 to 1.95 μg/mL. The diluted solutions were added to the cells, and the cultures were incubated for 24 h. The cytotoxicity of the complexes was determined after incubating the cells in 30 μL of resazurin for approximately 5 h. The measurement was performed using a Synergy H1 microplate reader (BioTek®, Winooski, VT, USA) with excitation and emission filters at wavelengths of 530 and 590 nm, respectively. The assays were performed in three independent experiments.
as §3

The subject of data set [8] is Artemia salina L. The data set is described as follows: Artemia salina L. toxicity assay. As to conditions: ratio of LC50 values to cisplatin. In kind it is in vivo. The procedure: To determine toxicity of the Zn^II complexes to brine shrimp, 25 mg of egg (Natal, RN, Brazil) was incubated in a beaker (2000 mL) containing artificial salt water at a temperature ranging from 20 to 30 °C. The artificial salt water consisted of 23 g NaCl, 11 g MgCl2·6H2O, 4 g Na2SO4, 1.3 g CaCl2·H2O, and 0.7 g KCl in 1000 mL distilled water. The pH was adjusted to 9.0 using 5N NaOH to avoid risk of death to the Artemia larvae (nauplii) due to a low pH during incubation.
After 24 hours, 0.6 g of Saccharomyces cerevisiae was added to the beaker per liter of salt water to feed the nauplii; after the eggs were incubated for 48 h, the nauplii were extracted for the experiments.
A 120 µL suspension of 10-15 nauplii was added to each well of a 96-well microplate, including the control wells. The compounds were solubilized in DMSO at 15,000 µg/mL and serially diluted in a separate 96-well microplate. The tested concentrations ranged from 1500 to 5.85 µg/mL. After incubation for 24 h, the plates were examined under a Lupa binocular microscope (X3.0), and the numbers of live nauplii in each well were counted to determine the LC50 [21]. The assays were performed in three independent experiments.

Data set [9] in a line: Solubility in solvents and vehicle (qualitative). In kind it is physicochemical.
Data set [10] has as its system BALB/c mice. Description: In vivo acute toxicity assay, single oral dose. As to conditions: single dose 1000 mg/kg body weight via gavage, 14 days, n = 6.
Method: Female 16–20-week old BALB/c mice weighing 24–26 g were used after utilizing these animals for the bioavailability experiments. […] The mice were maintained in polycarbonate cages at 23 ± 2 °C, 56% ± 2% humidity at a 12-h light/dark cycle under specific-pathogen-free conditions (in a positive-pressure cabinet), and the animals were provided with food and water ad libitum [36].
The safety profile of the complexes to BALB/c mice was evaluated via acute toxicity assays according to protocols established by the OECD using the classical method to measure the acute toxicity (LD50) of a single oral dose (administered via gavage) of the complexes [26].
Each complex was suspended in a sunflower oil vehicle, and the vehicle was used as a control (control group). The complexes were administered as a single dose at 1000 mg/kg body weight via gavage (n = 6 animals/complex). […] The animals were monitored for 14 days, and behavioral parameters (Hippocratic screening) were evaluated.
At the end of the experiment, the animals were weighed, and blood was collected via the submandibular vein. Subsequently, the animals were euthanized in CO2 chambers, and their organs (heart, lungs, right and left kidneys, spleen and liver) were surgically removed, weighed and macroscopically analyzed. […]
Data set [11] in a line: In vivo oral bioavailability test, plasma metal quantified by ICP-OES / ICP-MS. To be noted: BALB/c mice, 300 mg/Kg oral gavage. The protocol:
Female 4–8-week old BALB/c mice weighing 15–20 g were purchased from the central animal facilities of Campinas State University (UNICAMP, Campinas, SP, Brazil). The mice were maintained in polycarbonate cages at 23 ± 2 °C, 56% ± 2% humidity at a 12 h light/dark cycle under specific pathogen-free conditions (in a positive-pressure cabinet), and the animals were provided with food and water ad libitum. […] The animals (n = 2 animals/complex) received a dose of 300 mg/Kg body weight via oral gavage. At 20 min, 1 h, 2 h, and 4 h after drug administration, blood was drawn from two animals via the retro-orbital veins, draining the submandibular vein and the face of the mice to the point at which the origins of the jugular vein join so that drops of blood exude from the point of penetration. The plasma was separated and stored at −70 °C for quantification.
The metal ion (Zn) concentration was quantified via ICP-OES using a Thermo Scientific Model 6300 system (Thermo Scientific®, San Diego, CA, USA). Samples (50 µL) were diluted 1:100 with a solution containing 0.01% (v/v) Triton X-100 and 0.5% (v/v) nitric acid. During the experiment, the recovery validation test was performed, and this test produced a result of 94%–104% recovery.
For digestion, 50 µL of plasma sample and 5950 µL of double-distilled 20% (v/v) nitric acid were used. The samples were digested in a microwave (Berghof speedwave D 72800, Goshen, NY, USA), reaching a temperature of 170 °C. During the experiment, the recovery validation test was performed, and this test produced a result of 95%–105% recovery.

For data set [12], the system named is Artemia salina L. The arrangement: method as in Freitas et al. (2011) [25]. As to conditions: ref Freitas et al. (2011) [25]; read-out: LC50 against Artemia salina L.; cited from earlier work.
Where [13] appears, read: Homo sapiens, MRC5, normal MRC-5 cells.

Like-named read-outs stand apart in the source and are kept apart here.

As usually defined, the IC50 is the concentration that inhibits the measured activity by half. `N.N.[Cl][Pt][Cl]` [Cisplatin, reference compound]: the IC50 in [1] (normal MRC-5 cells) was found to be 46.2 ± 4.9 µM; in data set [2] it was 143 ± 3.3 µM; in [4] it was 56.5 ± 6.8 µM; in [5], 60.3 ± 15.1 µM; in data set [6] it was 85 ± 10.1 µM; in data set [7], 75.4 ± 6 µM. Besides, the “serum AST and ALT enzymatic activity levels versus control group” value in data set [3] is “no significant difference”.

`CC(=NN=C([S-])Nc1ccccc1)c1ccccn1.CC(=NN=C([S-])Nc1ccccc1)c1ccccn1.[Zn+2]` [Complex 2, [Zn(atc-Ph)2]]: the “SI (selectivity index), MDA-MB-231” value in data set [2] was determined as 2.2. In data set [8], the “fold lower toxicity in Artemia salina L. relative to cisplatin” value stood at 5.7 fold. In addition, in [4], the “SI (selectivity index), DU 145” value is recorded as 0.3. Further, the “solubility in organic solvents” value in data set [9] was “reasonably soluble only in dimethyl sulfoxide (DMSO)”. For the same molecule, the mortality result in data set [10] is “no mortality”. Besides, in data set [5], the “SI (selectivity index), HepG2” value is 3.6. The “maximum plasma concentration (Cmax)” value in data set [11] was 1191.95 ng/mL. In [11] (20 min, Zn by ICP-OES, relative to control sample), the “plasma concentration at 20 min” value amounted to 727.83 ng/mL. The “plasma concentration at 1 h” value in [11] (1 h, Zn by ICP-OES, relative to control sample) is 1023.55 ng/mL. In data set [11] (2 h, Zn by ICP-OES, relative to control sample), the “plasma concentration at 2 h” value came to 1191.95 ng/mL. Further, in data set [11] (4 h, Zn by ICP-OES, relative to control sample), the “plasma concentration at 4 h” value was 624.70 ng/mL.

Consider `CCNC(=S)N/N=C(\C)c1ccccn1` [Hatc-Et], for which the 50% inhibitory concentration (IC50) in [1] (setting [13]) came out at 9 µM; in data set [2] (Homo sapiens), 904 ± 65.3 µM; in [4] (Homo sapiens) it was 532 ± 12.6 µM; in data set [5] (Homo sapiens), 553 ± 45 µM; in data set [6] (Homo sapiens) it was 746 ± 23.2 µM; in data set [7] (Homo sapiens, K562), 420.3 ± 3.7 µM.

In the case of `C/C(=N\NC(=S)Nc1ccccc1)c1ccccn1` [Hatc-Ph], the half-maximal inhibitory concentration (IC50) in [1] (setting [13]) was found to be 7.4 µM; in data set [2] (Homo sapiens), 24.3 ± 5 µM; in data set [4] (Homo sapiens), 15.1 ± 2.1 µM; in [5] (Homo sapiens) it was 36.3 ± 1.5 µM; in data set [6] (Homo sapiens), 25 ± 0.2 µM; in data set [7] (Homo sapiens, K562) it was 11.1 ± 0.6 µM. Besides, the “SI (selectivity index), MDA-MB-231” value in [2] stood at 0.3. The “SI (selectivity index), DU 145” value in [4] is reported as 0.5. In [5], the “SI (selectivity index), HepG2” value was 0.2. The “SI (selectivity index), HeLa” value in [6] is listed as 0.3. Further, the “SI (selectivity index), K-562” value in data set [7] amounted to 0.7.

Take `O.O.O.O.O.O.[Cl][Zn][Cl]` [ZnCl2·6H2O]: the IC50 in [1] (normal MRC-5 cells) was found to be 240 ± 16.8 µM. Further, in [2], the “SI (selectivity index), MDA-MB-231” value stood at 0.5 and the half-inhibitory concentration (IC50) amounted to 475 ± 64.3 µM. In data set [4], the IC50 was determined as 383 ± 7.8 µM and the “SI (selectivity index), DU 145” value is listed as 0.6. In data set [5], the 50% inhibitory concentration (IC50) stood at 698 ± 10.9 µM and the “SI (selectivity index), HepG2” value is 0.3. In [6], the IC50 amounted to 864 ± 14 µM and the “SI (selectivity index), HeLa” value is on record as 0.3. For the same molecule, in data set [7], the “SI (selectivity index), K-562” value was 0.2 and the half-inhibitory concentration (IC50) amounted to 1090 ± 73.8 µM.

The term LC50 denotes the concentration that kills 50% of the test population. In the case of “perchlorate compound of bis(isoniazid) Zn^II hexahydrate”, the LC50 in [12] is 268 µM.

(Values after PMC4881598, “Novel Zinc(II) Complexes [Zn(atc-Et)2] and [Zn(atc-Ph)2]: In Vitro and in Vivo Antiproliferative Studies” (International Journal of Molecular Sciences, 2016).)
